Source: patent publication US11549123B2, “Plant EPSP synthases and methods of use” (PIONEER HI-BRED INTERNATIONAL, INC., priority 2015, dated 2023)

What was measured:
[1] = target: Zea mays EPSPS variant 4R (Zea mays, UniProt O24566, A3R); assay: EPSPS reaction rate with or without 10 uM glyphosate, 4R; type: biochemical; details: pH 7; read-out: Reaction rate with 10 μM glyph, % no glyph; note: 50 µM PEP and S3P
[2] = target: Zea mays EPSPS variant 224R 249V (Zea mays, UniProt O24566, K223R/Y248V); assay: EPSPS reaction rate with or without 10 uM glyphosate, 224R 249V; type: biochemical; details: pH 7; read-out: Reaction rate with 10 μM glyph, % no glyph; note: 50 µM PEP and S3P
Zea mays EPSPS variant 224R 249V, sequence (O24566 entry or part of it K223R/Y248V): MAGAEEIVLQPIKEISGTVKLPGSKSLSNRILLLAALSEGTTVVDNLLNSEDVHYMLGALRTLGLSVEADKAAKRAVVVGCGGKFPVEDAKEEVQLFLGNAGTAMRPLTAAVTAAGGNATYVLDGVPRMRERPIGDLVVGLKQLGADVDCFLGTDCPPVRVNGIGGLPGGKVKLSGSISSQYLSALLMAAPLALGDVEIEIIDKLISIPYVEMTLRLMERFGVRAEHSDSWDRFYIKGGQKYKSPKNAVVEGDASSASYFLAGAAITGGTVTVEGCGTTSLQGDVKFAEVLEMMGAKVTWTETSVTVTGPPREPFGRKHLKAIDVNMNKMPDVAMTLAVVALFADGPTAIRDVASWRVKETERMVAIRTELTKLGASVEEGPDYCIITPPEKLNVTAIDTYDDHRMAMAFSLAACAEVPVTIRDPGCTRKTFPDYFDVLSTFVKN

[3] = target: Zea mays EPSPS variant WT-FS-D (101S 107L 302S 338S) (Zea mays, UniProt O24566, A100S/A337S/E301S/P106L); assay: EPSPS substrate saturation kinetics, WT-FS-D; type: biochemical
Zea mays EPSPS variant WT-FS-D (101S 107L 302S 338S), sequence (O24566 entry or part of it A100S/P106L/E301S/A337S): as the sequence (O24566 entry or part of it K223R/Y248V) above, with A101S, P107L, R224K, V249Y, E302S, A338S counted along it
Protocol: EPSPS activity was determined by quantifying the phosphate generated from the EPSPS reaction. Release of inorganic phosphate was coupled to reaction with 2-amino-6-mercapto-7-methylpurine ribonucleoside, catalyzed by purine-nucleoside phosphorylase (M R Webb, Proc. Natl. Acad. Sci. 89:4884-4887, 1992). The absorbance change that occurs was monitored at 360 nm, where the extinction is 11,200 M^−1 cm^−1, with a Spectramax plate reader (Molecular Devices). To determine kinetic parameters, the varied substrate was present at seven concentrations (the eighth being the blank, containing no substrate) ranging from 4 to 400 uM and the unvaried substrate present at saturation. […] Reactions were monitored with a Spectramax plate reader. […] KI was then calculated from the following form of the Michaelis-Menten equation for competitive inhibition: KI=KM[I]/(KM app−KM) KM approximates the dissociation constant of the enzyme-substrate complex while kcat is the rate of conversion of substrate to product when the substrate concentration is saturating. kcat/KM is a widely accepted parameter for catalytic efficiency when substrate concentration is low (˜KM). […] The parameter kcat/KM×KI is used to quantify both catalytic efficiency and insensitivity and thus the overall fitness of the enzyme. […]

[4] = target: T1, Zea mays EPSPS variant Zm-H6 (868-H6) with V87T (H6-V87T) (Zea mays, UniProt O24566, A1R/A3W/A415G/A71Q/D401G/E301S/E390G/G101A/I207L/K83R/L97C/T278A/T360S/T440Q/V437R/V86T); assay: Substrate saturation kinetic analysis with glyphosate, H6-V87T; type: biochemical
T1 construct: 868-H6 plus V87T; E. coli BL21(DE3), Ni-NTA purified
T1 sequence (O24566 with tags, fused parts or gaps A1R/A3W/A71Q/K83R/V86T/L97C/G101A/I207L/T278A/E301S/T360S/E390G/D401G/A415G/V437R/T440Q): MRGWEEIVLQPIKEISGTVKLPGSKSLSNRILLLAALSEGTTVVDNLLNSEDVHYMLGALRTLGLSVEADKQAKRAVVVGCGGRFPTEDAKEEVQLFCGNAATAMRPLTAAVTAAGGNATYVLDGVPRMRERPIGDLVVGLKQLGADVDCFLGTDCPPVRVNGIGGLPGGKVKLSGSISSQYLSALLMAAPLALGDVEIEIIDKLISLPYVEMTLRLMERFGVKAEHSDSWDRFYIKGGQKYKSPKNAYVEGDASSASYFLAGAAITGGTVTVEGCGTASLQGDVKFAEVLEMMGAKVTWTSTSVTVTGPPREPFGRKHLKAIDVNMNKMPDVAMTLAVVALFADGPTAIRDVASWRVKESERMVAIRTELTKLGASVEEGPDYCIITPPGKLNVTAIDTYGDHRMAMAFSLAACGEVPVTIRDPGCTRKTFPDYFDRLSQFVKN

[5] = test system: Arabidopsis thaliana Col-0; assay: Glyphosate spray (Touchdown) tolerance of Arabidopsis transformed with maize EPSPS constructs; type: in vivo

Zea mays EPSPS variant 4R, sequence (O24566 entry or part of it A3R): as the sequence (O24566 entry or part of it K223R/Y248V) above, with A4R, R224K, V249Y counted along it

Question: What does the source list for `O=C(O)CNCP(=O)(O)O` [glyphosate, N-phosphonomethylglycine]?
Answer: activity at 10 µM [1]: 7.38%; activity at 10 µM [2]: 3.09%; Ki [3]: 3.81 µM; (kcat/KM)*KI ([3]; PEP as substrate, glyphosate as inhibitor): 346; Ki [4]: 348 µM; (kcat/KM)*KI ([4]; substrate saturation, H6-V87T): 3280; plant injury and growth inhibition compared to unsprayed controls ([5]; plants transformed with UbiQ10 promoter and H6 variant): no visible injury or growth inhibition; growth after treatment ([5]; untransformed plants, 1.26 kg/Ha spray): did not grow at all; plant injury ([5]; untransformed plants, 1.26 kg/Ha spray, by 10 days): chlorosis and imminent necrosis
